Source: US9713651B2, “Compositions, methods, and systems for the synthesis and use of imaging agents” (Lantheus Medical Imaging, Inc., priority 2012, dated 2017)

Assay: Tissue distribution of 18F imaging agents in rats
Format: in vivo, Male Sprague Dawley rats
Details: rat, iv tail vein ~15 μCi, ± SEM; for Blood, imaging agent distribution at 15 min / Brain, imaging agent distribution at 15 min / Femur, imaging agent distribution at 15 min / Heart, imaging agent distribution at 15 min / Kidney, imaging agent distribution at 15 min / Liver, imaging agent distribution at 15 min / Lung, imaging agent distribution at 15 min / Muscle, imaging agent distribution at 15 min / Pancreas, imaging agent distribution at 15 min / Spleen, imaging agent distribution at 15 min: 15 min post injection; for Blood, imaging agent distribution at 60 min / Brain, imaging agent distribution at 60 min / Femur, imaging agent distribution at 60 min / Heart, imaging agent distribution at 60 min / Kidney, imaging agent distribution at 60 min / Liver, imaging agent distribution at 60 min / Lung, imaging agent distribution at 60 min / Muscle, imaging agent distribution at 60 min / Pancreas, imaging agent distribution at 60 min / Spleen, imaging agent distribution at 60 min: 60 min post injection
Method: Anesthetized (sodium pentobarbital at 50 mg/kg, ip or isoflurane gas inhalation) Male Sprague Dawley rats (250-350 g) received an iv injection of the imaging agent (˜15 μCi) via the tail vein. At 15 or 60 min post injection, the animals were euthanized and the required tissue samples harvested. All samples were then weighed and counted for radioactivity (Wallac Wizard 1480 or Packard Cobra II Autogamma); regional tissue uptake of the imaging agent was thus expressed as a percentage of the total injected dose per gram of tissue (% ID/g).
The generic structure depicted below highlights specific structural features evaluated during distribution experiments.

With `Cc1c(OCc2ccc(COCCF)cc2)cnn(C(C)(C)C)c1=O` [Example 67I] the “Blood, imaging agent distribution at 15 min” value (from here on “Blood … at 15 min”) was 0.11 ± 0.02 % ID/g, the “Brain, imaging agent distribution at 15 min” value (“Brain … at 15 min” for short) was 0.49 ± 0.10 % ID/g and the “Femur, imaging agent distribution at 15 min” value (“Femur … at 15 min” below) was 0.28 ± 0.04 % ID/g. For the same molecule, the “Heart, imaging agent distribution at 15 min” value (“Heart … at 15 min” below) was 2.34 ± 0.57 % ID/g, the “Kidney, imaging agent distribution at 15 min” value (“Kidney … at 15 min” below) was 1.13 ± 0.11 % ID/g and the “Liver, imaging agent distribution at 15 min” value (“Liver … at 15 min” for short) was 0.33 ± 0.02 % ID/g. For the same molecule, the “Lung, imaging agent distribution at 15 min” value (“Lung … at 15 min” for short) was 0.19 ± 0.03 % ID/g, the “Muscle, imaging agent distribution at 15 min” value (“Muscle … at 15 min” below) was 0.28 ± 0.13 % ID/g and the “Pancreas, imaging agent distribution at 15 min” value (“Pancreas … at 15 min” for short) was 0.43 ± 0.10 % ID/g. The “Spleen, imaging agent distribution at 15 min” value (shortened to “Spleen … at 15 min”) was 0.18 ± 0.01 % ID/g, the “Blood, imaging agent distribution at 60 min” value (shortened to “Blood … at 60 min”) was 0.16 ± 0.01 % ID/g and the “Brain, imaging agent distribution at 60 min” value (from here on “Brain … at 60 min”) was 0.36 ± 0.01 % ID/g. The “Femur, imaging agent distribution at 60 min” value (“Femur … at 60 min” below) was 0.31 ± 0.02 % ID/g, the “Heart, imaging agent distribution at 60 min” value (“Heart … at 60 min” below) was 1.78 ± 0.15 % ID/g and the “Kidney, imaging agent distribution at 60 min” value (“Kidney … at 60 min” below) was 0.48 ± 0.04 % ID/g. The “Liver, imaging agent distribution at 60 min” value (“Liver … at 60 min” for short) was 0.30 ± 0.01 % ID/g, the “Lung, imaging agent distribution at 60 min” value (“Lung … at 60 min” for short) was 0.19 ± 0.01 % ID/g and the “Muscle, imaging agent distribution at 60 min” value (“Muscle … at 60 min” below) was 0.35 ± 0.09 % ID/g. For the same molecule, the “Pancreas, imaging agent distribution at 60 min” value (“Pancreas … at 60 min” for short) was 0.23 ± 0.02 % ID/g and the “Spleen, imaging agent distribution at 60 min” value (shortened to “Spleen … at 60 min”) was 0.13 ± 0.00 % ID/g.
For `CC(C)(C)n1ncc(OCc2ccc(OCCOCCF)cc2)c(Cl)c1=O` [Example 67B], the “Blood … at 15 min” value was 0.49 ± 0.02 % ID/g, the “Femur … at 15 min” value was 0.80 ± 0.12 % ID/g and the “Heart … at 15 min” value was 1.66 ± 0.06 % ID/g. For the same molecule, the “Kidney … at 15 min” value was 2.25 ± 0.05 % ID/g, the “Liver … at 15 min” value was 2.33 ± 0.09 % ID/g and the “Lung … at 15 min” value was 0.49 ± 0.04 % ID/g. The “Muscle … at 15 min” value was 0.19 ± 0.00 % ID/g, the “Spleen … at 15 min” value was 0.41 ± 0.01 % ID/g and the “Blood … at 60 min” value was 0.26 ± 0.04 % ID/g. The “Femur … at 60 min” value was 0.78 ± 0.22 % ID/g, the “Heart … at 60 min” value was 1.58 ± 0.13 % ID/g and the “Kidney … at 60 min” value was 1.17 ± 0.20 % ID/g. The “Liver … at 60 min” value was 1.34 ± 0.22 % ID/g, the “Lung … at 60 min” value was 0.27 ± 0.03 % ID/g and the “Muscle … at 60 min” value was 0.15 ± 0.04 % ID/g. The “Spleen … at 60 min” value was 0.20 ± 0.04 % ID/g.
With `CC(C)(C)n1ncc(OCc2ccc(C(=O)OCCF)cc2)c(Cl)c1=O` [Example 67J] the “Blood … at 15 min” value was 0.50 ± 0.02 % ID/g, the “Brain … at 15 min” value was 0.36 ± 0.01 % ID/g and the “Femur … at 15 min” value was 0.28 ± 0.02 % ID/g. The “Heart … at 15 min” value was 1.19 ± 0.25 % ID/g, the “Kidney … at 15 min” value was 0.39 ± 0.01 % ID/g and the “Liver … at 15 min” value was 0.32 ± 0.01 % ID/g. The “Lung … at 15 min” value was 0.39 ± 0.02 % ID/g, the “Muscle … at 15 min” value was 0.38 ± 0.04 % ID/g and the “Pancreas … at 15 min” value was 0.23 ± 0.02 % ID/g. For the same molecule, the “Spleen … at 15 min” value was 0.34 ± 0.01 % ID/g, the “Blood … at 60 min” value was 0.58 ± 0.04 % ID/g and the “Brain … at 60 min” value was 0.43 ± 0.02 % ID/g. For the same molecule, the “Femur … at 60 min” value was 0.40 ± 0.03 % ID/g, the “Heart … at 60 min” value was 0.50 ± 0.03 % ID/g and the “Kidney … at 60 min” value was 0.42 ± 0.02 % ID/g. For the same molecule, the “Liver … at 60 min” value was 0.35 ± 0.02 % ID/g, the “Lung … at 60 min” value was 0.42 ± 0.02 % ID/g and the “Muscle … at 60 min” value was 0.31 ± 0.02 % ID/g. For the same molecule, the “Pancreas … at 60 min” value was 0.23 ± 0.03 % ID/g and the “Spleen … at 60 min” value was 0.37 ± 0.02 % ID/g.
In the case of `CC(C)(C)n1ncc(OCc2cccc(COCCF)c2)c(Cl)c1=O` [Example 67A], the “Blood … at 15 min” value is reported as 0.03 ± 0.01 % ID/g, the “Brain … at 15 min” value is reported as 0.14 ± 0.05 % ID/g and the “Femur … at 15 min” value is reported as 0.06 ± 0.02 % ID/g. For the same molecule, the “Heart … at 15 min” value was 0.65 ± 0.36 % ID/g, the “Kidney … at 15 min” value was 0.38 ± 0.08 % ID/g and the “Liver … at 15 min” value was 0.08 ± 0.03 % ID/g. For the same molecule, the “Lung … at 15 min” value was 0.07 ± 0.01 % ID/g, the “Muscle … at 15 min” value was 0.09 ± 0.04 % ID/g and the “Pancreas … at 15 min” value was 0.15 ± 0.05 % ID/g. For the same molecule, the “Spleen … at 15 min” value was 0.05 ± 0.01 % ID/g, the “Blood … at 60 min” value was 0.11 ± 0.02 % ID/g and the “Brain … at 60 min” value was 0.14 ± 0.03 % ID/g. For the same molecule, the “Femur … at 60 min” value was 0.17 ± 0.04 % ID/g, the “Heart … at 60 min” value was 0.84 ± 0.22 % ID/g and the “Kidney … at 60 min” value was 0.23 ± 0.03 % ID/g. For the same molecule, the “Liver … at 60 min” value was 0.11 ± 0.02 % ID/g, the “Lung … at 60 min” value was 0.11 ± 0.02 % ID/g and the “Muscle … at 60 min” value was 0.18 ± 0.04 % ID/g. The “Pancreas … at 60 min” value was 0.13 ± 0.03 % ID/g and the “Spleen … at 60 min” value was 0.09 ± 0.02 % ID/g.
With `CC(C)(C)n1ncc(OCc2ccc(C#CCCF)cc2)c(Cl)c1=O` [Example 67K] the “Blood … at 15 min” value was 0.07 ± 0.03 % ID/g, the “Brain … at 15 min” value was 0.36 ± 0.04 % ID/g and the “Femur … at 15 min” value was 0.27 ± 0.02 % ID/g. For the same molecule, the “Heart … at 15 min” value was 2.68 ± 0.35 % ID/g, the “Kidney … at 15 min” value was 1.35 ± 0.14 % ID/g and the “Liver … at 15 min” value was 0.99 ± 0.06 % ID/g. For the same molecule, the “Lung … at 15 min” value was 0.37 ± 0.15 % ID/g, the “Muscle … at 15 min” value was 0.28 ± 0.02 % ID/g and the “Pancreas … at 15 min” value was 0.55 ± 0.10 % ID/g. The “Spleen … at 15 min” value was 0.31 ± 0.09 % ID/g, the “Blood … at 60 min” value was 0.03 ± 0.00 % ID/g and the “Brain … at 60 min” value was 0.36 ± 0.03 % ID/g. For the same molecule, the “Femur … at 60 min” value was 0.37 ± 0.05 % ID/g, the “Heart … at 60 min” value was 2.46 ± 0.27 % ID/g and the “Kidney … at 60 min” value was 0.83 ± 0.08 % ID/g. For the same molecule, the “Liver … at 60 min” value was 0.83 ± 0.17 % ID/g, the “Lung … at 60 min” value was 0.15 ± 0.03 % ID/g and the “Muscle … at 60 min” value was 0.39 ± 0.04 % ID/g. The “Pancreas … at 60 min” value was 0.38 ± 0.02 % ID/g and the “Spleen … at 60 min” value was 0.11 ± 0.02 % ID/g.
In the case of `CC(C)(C)n1ncc(OCc2ccc(Oc3cccnc3F)cc2)c(Cl)c1=O` [Example 67O], the “Blood … at 15 min” value is reported as 0.07 ± 0.03 % ID/g, the “Brain … at 15 min” value is reported as 0.36 ± 0.04 % ID/g and the “Femur … at 15 min” value is reported as 0.27 ± 0.02 % ID/g. For the same molecule, the “Heart … at 15 min” value was 2.68 ± 0.35 % ID/g, the “Kidney … at 15 min” value was 1.35 ± 0.14 % ID/g and the “Liver … at 15 min” value was 0.99 ± 0.06 % ID/g. The “Lung … at 15 min” value was 0.37 ± 0.15 % ID/g, the “Muscle … at 15 min” value was 0.28 ± 0.02 % ID/g and the “Pancreas … at 15 min” value was 0.55 ± 0.10 % ID/g. For the same molecule, the “Spleen … at 15 min” value was 0.31 ± 0.09 % ID/g, the “Blood … at 60 min” value was 0.03 ± 0.00 % ID/g and the “Brain … at 60 min” value was 0.36 ± 0.03 % ID/g. For the same molecule, the “Femur … at 60 min” value was 0.37 ± 0.05 % ID/g, the “Heart … at 60 min” value was 2.46 ± 0.27 % ID/g and the “Kidney … at 60 min” value was 0.83 ± 0.08 % ID/g. For the same molecule, the “Liver … at 60 min” value was 0.83 ± 0.17 % ID/g, the “Lung … at 60 min” value was 0.15 ± 0.03 % ID/g and the “Muscle … at 60 min” value was 0.39 ± 0.04 % ID/g. The “Pancreas … at 60 min” value was 0.38 ± 0.02 % ID/g and the “Spleen … at 60 min” value was 0.11 ± 0.02 % ID/g.
